Measurements as given in the NIST ThermoML archive (doi:10.1021/je0601457).

Assay: xn = mol fraction of the nth substance listed

Cc1nccnc1C [2,3-dimethylpyrazine] + O=C=O
Fluid (supercritical or subcritical phases), Linear displacement technique
Conditions	mass density [kg/m3]
294.15 K, 7140 kPa, x1 = 0.027	905
294.15 K, 9590 kPa, x1 = 0.027	934
294.15 K, 14100 kPa, x1 = 0.027	983
294.55 K, 7140 kPa, x1 = 0.049	1099
294.55 K, 7140 kPa, x1 = 0.184	947
294.55 K, 8520 kPa, x1 = 0.184	949
294.55 K, 10590 kPa, x1 = 0.049	1123
294.55 K, 12450 kPa, x1 = 0.184	951
294.55 K, 13830 kPa, x1 = 0.049	1142
294.75 K, 2240 kPa, x1 = 0.736	861
294.75 K, 3830 kPa, x1 = 0.736	864
294.75 K, 5690 kPa, x1 = 0.736	864
294.75 K, 6720 kPa, x1 = 0.033	836
294.75 K, 8450 kPa, x1 = 0.033	858
294.75 K, 13830 kPa, x1 = 0.033	911
294.85 K, 6660 kPa, x1 = 0.108	899
294.85 K, 7070 kPa, x1 = 0.565	958
294.85 K, 10070 kPa, x1 = 0.108	901
294.85 K, 10620 kPa, x1 = 0.565	961
294.85 K, 13620 kPa, x1 = 0.108	904
294.85 K, 15240 kPa, x1 = 0.565	964
294.85 K, 18660 kPa, x1 = 0.108	908
295.05 K, 7070 kPa, x1 = 0.157	995
295.05 K, 10310 kPa, x1 = 0.157	1004
295.05 K, 13480 kPa, x1 = 0.157	1014
295.25 K, 6140 kPa, x1 = 0.086	767
295.25 K, 6380 kPa, x1 = 0.057	871
295.25 K, 7410 kPa, x1 = 0.057	885
295.25 K, 7690 kPa, x1 = 0.01	785
295.25 K, 8380 kPa, x1 = 0.086	778
295.25 K, 10170 kPa, x1 = 0.057	911
295.25 K, 11100 kPa, x1 = 0.01	833
295.25 K, 12100 kPa, x1 = 0.086	799
295.25 K, 15790 kPa, x1 = 0.01	873
295.25 K, 16070 kPa, x1 = 0.086	817
296.25 K, 4410 kPa, x1 = 0.433	989
296.25 K, 7660 kPa, x1 = 0.433	997
296.25 K, 10720 kPa, x1 = 0.433	1002
301.75 K, 6620 kPa, x1 = 0.565	938
301.75 K, 9830 kPa, x1 = 0.565	941
301.75 K, 15790 kPa, x1 = 0.565	946
302.65 K, 7520 kPa, x1 = 0.049	902
302.65 K, 10030 kPa, x1 = 0.049	934
302.65 K, 13030 kPa, x1 = 0.049	962
302.65 K, 16660 kPa, x1 = 0.049	1000
303.25 K, 7410 kPa, x1 = 0.291	859
303.25 K, 9860 kPa, x1 = 0.291	860
303.25 K, 15450 kPa, x1 = 0.291	860
306.25 K, 7410 kPa, x1 = 0.027	750
306.25 K, 9900 kPa, x1 = 0.027	812
306.25 K, 13380 kPa, x1 = 0.027	864
308.95 K, 7070 kPa, x1 = 0.157	952
308.95 K, 9450 kPa, x1 = 0.157	964
308.95 K, 13480 kPa, x1 = 0.157	981
308.95 K, 17690 kPa, x1 = 0.157	996
310.85 K, 6970 kPa, x1 = 0.433	967
310.85 K, 12480 kPa, x1 = 0.433	975
310.85 K, 21340 kPa, x1 = 0.433	994
311.45 K, 7380 kPa, x1 = 0.184	912

Liquid, linear displacement
Conditions	mass density [kg/m3]
294.15 K, x1 = 0.027	868
294.55 K, x1 = 0.049	1077
294.55 K, x1 = 0.184	945
294.75 K, x1 = 0.033	802
294.75 K, x1 = 0.736	861
294.85 K, x1 = 0.108	896
294.85 K, x1 = 0.565	947
295.05 K, x1 = 0.157	982
295.25 K, x1 = 0.01	735
295.25 K, x1 = 0.057	832
295.25 K, x1 = 0.086	730
296.25 K, x1 = 0.433	985
301.75 K, x1 = 0.565	920
302.65 K, x1 = 0.049	876
303.25 K, x1 = 0.291	858
306.25 K, x1 = 0.027	738
308.95 K, x1 = 0.157	948
310.85 K, x1 = 0.433	962
